Measurements as given in paper PMC12668308, “A Novel Antimalarial Agent that Inhibits Protein Synthesis in Plasmodium falciparum” (Angewandte Chemie (International Ed. in English), 2025).

Tests used:
[1] = tested on: 60S ribosomal protein L22 (W7K6D9); test: iSPP profiling, P. falciparum lysate; assay type: binding, Plasmodium falciparum
Description: (§1) P. falciparum NF54 lysates were extracted as described in ^[26^] . The parasite asynchronous culture was extracted once 3-5% parasitemia was reached. Saponin lysis was done as described in 2.2.10. Once the parasite pellet was obtained, 2.5 volumes of ice-cold lysis buffer (50 mM Tris/HCl pH 7.5 (Avantor), 5% glycerol (Sigma-Aldrich), 150 mM NaCl (Carl Roth), 1.5 mM MgCl2 (Sigma-Aldrich), 1 mM DTT (Carl Roth), 0.8% IGEPAL CA-630 (Sigma-Aldrich), 1X Halt Protease and Phosphatase Inhibitor-Cocktails EDTA-free (Thermo Fisher Scientific)) was added to the parasite pellet. The lysate solution was subjected to three cycles of flash freeze-thaw with liquid nitrogen and ddH2O at RT. The lysates were centrifuged at 20,000 g for 20 minutes at 4 °C. The soluble protein fraction (supernatant) was collected and the protein content was quantified using the BCA assay (Pierce™ BCA Protein Assay Kit, Thermo Fisher Scientific). The lysate was stored at -80 °C until further use.
(§2) The P. falciparum lysate was thawed on ice and diluted to 0.8 mg/mL. […] Subsequently, the samples were incubated at room temperature for 30 minutes using a rotating mixer. After distribution into a 96-well plate, the samples were treated with increasing concentrations of A.E.A. (v/v) ranging from 14% to 28% (14, 16, 18, 20, 22, 24, 26, and 28%). Following a 20-minute incubation at 37°C with shaking at 750 rpm, the samples were centrifuged at 4400 g for 35 minutes to remove precipitated proteins. The soluble fractions were then pooled in equal volumes into a single sample using the Bravo Automated Liquid Handling Platform. The pooled samples were subsequently prepared for LC-MS/MS analysis.
(§3) The raw LFQ-DIA intensity values of biological replicates across all conditions were normalized to the median abundance using Excel. The normalized values were then log2 transformed in Perseus (v2.0.10.0).^[58^] Missing values were imputed from a normal distribution (width 0.3, down shift 1.5), and p-values were obtained using a two-sample t-test over replicates with a permutation-based false discovery rate correction (FDR 0.05). Volcano plots were generated in RStudio using the EnhancedVolcano package (v. 1.20.0), ^[59^] plotting proteins by statistical significance (y-axis: –Log10 p-value) versus the magnitude of change (x-axis: log2 fold change of protein intensities for each compound condition relative to the vehicle control). The heatmap was generated in Perseus (v2.0.10.0). Dose-dependent curves were generated using normalized protein intensity values, expressed as a ratio to the vehicle control. Plots were created in GraphPad Prism (v8.3.0) using a nonlinear regression model.

[2] = tested on: FACT complex subunit (W7KAC4); test: iSPP profiling, P. falciparum lysate; assay type: binding, Plasmodium falciparum
Description: as §1, §2, §3

[3] = tested on: DNA primase large subunit (W7KFW7); test: iSPP profiling, P. falciparum lysate; assay type: binding, Plasmodium falciparum
Description: as §1, §2, §3

[4] = Metabolic stability in liver S9 fractions; assay type: in vitro ADME; conditions: pooled mouse liver S9 fraction; 1 μM compound, 1 mg/mL pooled mouse liver S9, 37 °C; read-out: t1/2 Mouse Liver S9
Description: To evaluate phase I and phase II metabolic stability, the compound (1 μM) was incubated at 37 °C for 240 min with 1 mg/mL pooled mouse liver S9 fraction (Xenotech, Kansas City, USA), 2 mM NADPH, 1 mM UDPGA, 10 mM MgCl2, 5 mM GSH and 0.1 mM PAPS. Metabolic stability of reference compounds: testosterone, verapamil and ketoconazole was determined in parallel to confirm the enzymatic activity of mouse S9 fractions. At defined time points, the incubation was stopped by precipitation of aliquots of S9 enzymes with 2 volumes of cold acetonitrile containing internal standard (150 nM diphenhydramine or 15 nM for Altis Plus measurements). Samples were kept on ice until the end of the incubation, after which precipitated protein was removed by centrifugation (15 min, 4 °C, 4,000 g).

[5] = Cytotoxicity assay (MTT); assay type: cell-based, human; conditions: human, HepG2 cells; HepG2, 48 h, MTT; mean ± s.d.
Description: (§4) HepG2 (2x10^4 cells per well) were seeded in 96-well flat-bottom culture plates in 100 µL of culture medium (DMEM containing 10% fetal calve serum and 1% penicillin-streptomycin). After 24 hours, the medium was replaced by fresh medium containing test compounds in a final DMSO concentration of 1%. […] Epirubicin and doxorubicin were used as positive controls in serial dilutions starting from 10 µM, and rifampicin was used as a negative control (at 100 µM). Cell viability was determined 48 h after treatment with compounds by adding 0.1 volumes of 3-(4,5-dimethylthiazol-2-yl)-2,5-diphenyltetrazolium bromide (MTT) solution (5 mg/mL sterile PBS) (Sigma, St. Louis, MO) to the wells. After incubating the cells for 30 min at 37 °C (atmosphere containing 5% CO2), medium was removed and MTT crystals were dissolved in 75 µL of a solution containing 10% SDS and 0.5% acetic acid in DMSO. The optical density (OD) of the samples was measured photometrically at 570 nm in a PHERAstar Omega plate reader (BMG labtech, Ortenberg, Germany). Percent viability was calculated by normalizing sample ODs to those of the DMSO controls. Each compound was tested in at least two independent experiments and CC50 values were determined using the nonlinear regression function of GraphPad Prism 10 (GraphPad Software, San Diego, CA, USA).

[6] = tested on: HepG2; test: Cytotoxicity assay (MTT); assay type: cell-based, human
Description: as §4

[7] = tested on: SPATR (W7KAV2); test: iSPP profiling, P. falciparum lysate; assay type: binding, Plasmodium falciparum; conditions: 100 µM compound 34
Description: as §1
The P. falciparum lysate was thawed on ice and diluted to 0.8 mg/mL. The lysate was aliquoted, and each aliquot was incubated with either a vehicle control (DMSO), 34 (dissolved in DMSO), or varying concentrations of 31 (dissolved in DMSO) at 0.01 µM, 0.1 µM, 10 µM, 50 µM, and 100 µM. Subsequently, the samples were incubated at room temperature for 30 minutes using a rotating mixer. After distribution into a 96-well plate, the samples were treated with increasing concentrations of A.E.A. (v/v) ranging from 14% to 28% (14, 16, 18, 20, 22, 24, 26, and 28%). Following a 20-minute incubation at 37°C with shaking at 750 rpm, the samples were centrifuged at 4400 g for 35 minutes to remove precipitated proteins. The soluble fractions were then pooled in equal volumes into a single sample using the Bravo Automated Liquid Handling Platform. The pooled samples were subsequently prepared for LC-MS/MS analysis.
as §3

Row | SMILES | log2FC ([1]; 10 µM) | log2FC ([1]; 50 µM) | log2FC ([1]; 100 µM) | log2FC ([1]; 10^-2 µM) | log2FC ([1]; 10^-3 µM) | log2FC ([2]; 10 µM) | log2FC ([2]; 50 µM) | log2FC ([2]; 100 µM) | log2FC ([2]; 10^-2 µM) | log2FC ([2]; 10^-3 µM) | log2FC ([3]; 10 µM) | log2FC ([3]; 50 µM) | log2FC ([3]; 100 µM) | log2FC ([3]; 10^-2 µM) | log2FC ([3]; 10^-3 µM) | half-life at 1 µM [4] [min] | CC50 at 48 h [5] [µM] | selectivity index (CC50/IC50) ([6]; HepG2 CC50 / P. falciparum IC50) | inhibition at 100 µM ([6]; Homo sapiens, HepG2, 100 µM, 48 h, MTT) [%] | log2FC [7]
1 | CN1CCN(Cc2ccc(O)c(NC(=O)c3cccc(Oc4cc(C(F)(F)F)ccn4)c3)c2)CC1 [Compound 31, N-(2-hydroxy-5-((4-methylpiperazin-1-yl)methyl)phenyl)-3-((4-(trifluoromethyl)pyridin-2-yl)oxy)benzamide] | 0.72 | 0.75 | 0.65 | 0.61 | 0.18 | 0.30 | 0.55 | 0.41 | 0.48 | 0.30 | 0.33 | 0.51 | 0.41 | 0.50 | 0.39 | 42.7 ± 3.7 | 37 | 9,487 | 87 ± 5 | –
2 | O=C(Nc1cc(CN2CCOCC2)ccc1F)c1cccc(Oc2cc(C(F)(F)F)ccn2)c1 [Compound 34, N-(2-Fluoro-5-(morpholinomethyl)phenyl)-3-((4-(trifluoromethyl)pyridin-2-yl)oxy)benzamide] | – | – | – | – | – | – | – | – | – | – | – | – | – | – | – | – | – | – | – | 0.3835
